Measurements taken from US5731155A, “Compositions for inhibition of intracellular transcription factors and methods therefor” (Washington University, priority 1996, dated 1998).
“Also recorded” adds a separate entry of the source. Where a SMILES comes first, the peptide text is derived from it. [ ]: non-standard residue; d: D form. The star is where a group is joined. Biotin = O=C1N[C@H]2[C@H](CS[C@H]2CCCCC(=O)*)N1; pY = N[C@@H](Cc1ccc(OP(=O)(O)O)cc1)C(=O)O; Ahx = NCCCCCC(=O)O

How the values were obtained:
STAT3 [1] = target: T1, STAT3 (Mus musculus, UniProt P42227); assay: Precipitation of STAT3 from BaMR cytosolic homogenates with biotinylated IL-10 receptor peptides; format: binding; conditions: for precipitation of / binding to the 92 kD STAT3 protein: biotinylated 12 amino acid peptides, BaMR cytosolic homogenates; for concentration of biotinylated peptide sufficient to precipitate STAT3 (comparable amounts): increasing peptide concentrations, data not shown
T1 construct: Cytosolic homogenates of BaMR cells were precipitated with the biotinylated 12 amino acid peptides; endogenous in cells; host or cells: BaMR (BaF3 pre-B cells transfected with the IL-10 receptor) homogenates
From the text: Aminoterminally biotinylated peptides were synthesized comprising 12 amino acids in which the peptides each contained a different region of the IL-10 receptor intracellular domain containing a tyrosine residue. These peptides corresponded to positions 370 to 381 (SEQ ID NO:26, Gln-Gln-Leu-Gly-Xaa-His-Gln-Asp-Gln-Asp-Asp-Ser), 392-403 (SEQ ID NO:27, Gly-Gln-Pro-Lys-Xaa-Thr-Gln-Asp-Ala-Ser-Asp-Leu), 423 to 434 (SEQ ID NO:24, Thr-Phe-Gln-Gly-Xaa-Gln-Lys-Gln-Thr-Arg-Trp-Lys) and 473 to 484 (SEQ ID NO:25, Leu-Ala-Ala-Gly-Xaa-Leu-Lys-Gln-Glu-Ser-Gln-Gly) in which the amino acids identified in the sequence as Xaa in positions 374, 396, 427, and 477 of the respectively peptides are phosphorylated tyrosines. In addition, the sequences 423 to 434 (SEQ ID NO:28, Thr-Phe-Gln-Gly-Tyr-Gln-Lys-Gln-Thr-Arg-Trp-Lys) and 473 to 484 (SEQ ID NO:29, Leu-Ala-Ala-Gly-Tyr-Leu-Lys-Gln-Glu-Ser-Gln-Gly) contained the non-phosphorylated tyrosines in the positions 427, and 477 of the IL-10 receptor intracellular domain. Cytosolic homogenates of BaMR cells were precipitated with the biotinylated 12 amino acid peptides. […] In contrast to this, no binding to the STAT3 transcription factor occurred with the peptides containing phosphorylated tyrosines in positions 374 (SEQ ID NO:26) and 396 (SEQ ID NO:27), the peptides containing non-phosphorylated tyrosines in positions 427 (SEQ ID NO:28) and 477 (SEQ ID NO:29) and the phosphorylated peptide corresponding to the amino acid sequences 436 to 447 of the IFNγ receptor α chain intracellular domain (FIG. 10). Whereas both the 427 and the 477 phosphopeptides precipitated the STAT3 transcription factor, none of the phosphopeptides coprecipitated STAT1.

STAT3 [2] = target: T1, STAT3; assay: Inhibition of IL-10 dependent STAT3 phosphorylation in BaMR cell homogenates; format: biochemical; conditions: for effect on IL-10 dependent phosphorylation of STAT3: peptide 100 μM, 45 minutes at 4° C., then 100 ng/ml IL-10
Protocol: BaMR cell homogenates were prepared in a Dounce homogenizer and 18 μg of total protein was incubated without or with IL-10 at a concentration of 100 ng/ml for 15 minutes at 37° C. (FIG. 11, lanes 1 and 2). In lanes 3-8, 18 μg total protein of the BaMR homogenates was incubated for 45 minutes at 4° C. with a 100 μM concentration of the IL-10-receptor peptides having phosphorylated tyrosines at positions 374 (SEQ ID NO:26), 396 (SEQ ID NO:27), 427(SEQ ID NO:24), and 477(SEQ ID NO:25) (lanes 3-6) or 100 μM concentration of the non phosphorylated peptides having tyrosines at positions 427 (SEQ ID NO:28) and 477 (SEQ ID NO:29). Reaction mixtures were stimulated with 100 ng/ml IL-10 as described above and homogenates were precipitated with STAT3 or STAT1 specific antisera. Precipitates were blotted with phosphotyrosine specific antibody RC-20 and reactions developed using the ECL-system. Blots were stripped and reblotted with STAT3 and STAT1 specific antisera, respectively.

IFNγ receptor α chain = assay: IFNγ dependent tyrosine phosphorylation of the IFNγ receptor α chain in Colo-205 cells (4G10 western blot); format: cell-based, human; conditions: Colo-205 treated for 5 minutes
From the text: For these experiments, Colo-205, a human adenocarcinoma cell line obtained from the ATCC, was used because it was known to express a high number of IFNγ receptors (10,000 receptors/cell) and has been well characterized with regard to both biologic responsiveness to IFNγ and IFNγ receptor […] phosphorylation (Hershey and Schreiber, 1989; Hershey et al., 1990 both of which are incorporated by reference). Colo-205 cells (5-10×10^7) were resuspended in one ml of PBS-10% FCS and were then incubated at 37° C., either in the presence or absence of rHuIFNγ (10,000 IRU). Purified recombinant human IFNγ was provided by Dr. Susan Kramer of Genentech, Inc. (South San Francisco, Calif.). […] Purified rHuIFNγ was radioiodinated, using Bolton Hunter reagent (ICN Chemicals, Radioisotope Division, Irvine, Calif.) to specific activities of 6.5-17.8 μCi/μg as described in Celada et al. (J Clin Invest 76:2196-2205, 1985 which is incorporated by reference). The reaction was stopped by adding 4 mls of ice-cold PBS. Cells were pelleted, washed once in ice-cold PBS, and then lysed in one ml of lysis buffer (25 mM Tris-HCl (pH 8.0), 1% NP-40, 150 mM NaCl, 1 mM sodium orthovanadate, 10 mM NaF, 1 mM PMSF, 5mM iodoacetamide, […] leupeptin and aprotinin). Solubilized cells were centrifuged at 15,000×g to remove cell nuclei and the supernatants were then incubated with 10 μg of GIR-94 for 30 minutes at 4° C. Protein G sepharose was added to the reaction mixture and the incubation continued for an additional 30 minutes. […]
To determine the amount of receptor precipitated at each time point, aliquots from each immunoprecipitate were subjected to western blot analysis using a monoclonal antibody (GIR-94, a murine antibody IgG2b) that is specific for the human IFNγ receptor extracellular domain. In the absence of added IFNγ, no tyrosine phosphorylated receptor was detected (FIG. 1, lane 1). […]

T1 sequence (P42227 whole entry): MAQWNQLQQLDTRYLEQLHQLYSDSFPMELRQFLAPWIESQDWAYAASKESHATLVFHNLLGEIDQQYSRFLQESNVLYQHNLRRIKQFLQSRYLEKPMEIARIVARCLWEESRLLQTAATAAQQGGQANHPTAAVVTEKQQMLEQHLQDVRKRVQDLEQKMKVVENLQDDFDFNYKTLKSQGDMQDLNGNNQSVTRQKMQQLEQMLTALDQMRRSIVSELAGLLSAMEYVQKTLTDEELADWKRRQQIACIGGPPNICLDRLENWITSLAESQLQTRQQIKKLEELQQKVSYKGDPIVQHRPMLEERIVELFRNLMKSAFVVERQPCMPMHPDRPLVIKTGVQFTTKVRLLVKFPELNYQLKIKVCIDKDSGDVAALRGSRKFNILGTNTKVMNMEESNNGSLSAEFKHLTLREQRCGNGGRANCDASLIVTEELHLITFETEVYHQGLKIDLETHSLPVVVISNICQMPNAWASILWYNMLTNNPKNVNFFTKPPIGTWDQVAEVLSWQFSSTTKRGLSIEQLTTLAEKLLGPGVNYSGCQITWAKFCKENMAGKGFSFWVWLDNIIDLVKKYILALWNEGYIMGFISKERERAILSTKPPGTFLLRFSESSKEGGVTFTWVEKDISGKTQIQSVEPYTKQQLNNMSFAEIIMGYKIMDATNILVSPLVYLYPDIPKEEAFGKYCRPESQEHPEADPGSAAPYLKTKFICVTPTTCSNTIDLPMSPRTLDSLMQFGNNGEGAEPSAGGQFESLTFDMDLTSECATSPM

Molecule	precipitation of / binding to the 92 kD STAT3 protein (STAT3 [1])	further results
CC(C)C[C@H](NC(=O)[C@@H](NC(=O)[C@H](Cc1c[nH]cn1)NC(=O)[C@@H]1CCCN1C(=O)[C@H](CCCCN)NC(=O)[C@H](CC(=O)O)NC(=O)[C@H](Cc1ccc(OP(=O)(O)O)cc1)NC(=O)CNC(=O)[C@H](Cc1ccccc1)NC(=O)[C@H](CO)NC(=O)[C@@H](NC(=O)CCCCCNC(=O)CCCC[C@@H]1SC[C@@H]2NC(=O)N[C@@H]21)[C@@H](C)O)C(C)C)C(=O)N[C@H](C(=O)O)C(C)C [SEQ ID NO:4, Biotin-TSFGY-PO4 DKPHVLV] ({Biotin-Ahx}-TSFG[pY]DKPHVLV-OH)	no binding	
Leu-Ala-Ala-Gly-Xaa-Leu-Lys-Gln-Glu-Ser-Gln-Gly [SEQ ID NO:25]	specifically precipitated; also recorded: coprecipitated	concentration of biotinylated peptide sufficient to precipitate STAT3 (comparable amounts) (STAT3 [1]): 4 to 20 µM; effect on IL-10 dependent phosphorylation of STAT3 (STAT3 [2]): specifically inhibited
Thr-Phe-Gln-Gly-Xaa-Gln-Lys-Gln-Thr-Arg-Trp-Lys [SEQ ID NO:24]	specifically precipitated; also recorded: coprecipitated	concentration of biotinylated peptide sufficient to precipitate STAT3 (comparable amounts) (STAT3 [1]): 0.8 µM; potency in inhibiting STAT3 phosphorylation relative to SEQ ID NO:25 (STAT3 [2]; concentration-dependent inhibition, FIG. 12): 5 to 10 fold; effect on IL-10 dependent phosphorylation of STAT3 (STAT3 [2]): specifically inhibited
rHuIFNγ: Purified recombinant human IFNγ provided by Genentech, Inc.		IFNγ dose at which IFNγ receptor tyrosine phosphorylation reached maximal levels (IFNγ receptor α chain): 10,000 IRU/ml; IFNγ dose at which IFNγ receptor tyrosine phosphorylation was detected (IFNγ receptor α chain): 100 IRU/ml

Further lines, with some results ahead:

precipitation of / binding to the 92 kD STAT3 protein (STAT3 [1])	Molecule	further results
no binding	CC(C)C[C@H](NC(=O)[C@H](CCC(N)=O)NC(=O)[C@H](CCC(N)=O)NC(=O)CCCCCNC(=O)CCCC[C@@H]1SC[C@@H]2NC(=O)N[C@@H]21)C(=O)NCC(=O)N[C@@H](Cc1ccc(OP(=O)(O)O)cc1)C(=O)N[C@@H](Cc1c[nH]cn1)C(=O)N[C@@H](CCC(N)=O)C(=O)N[C@@H](CC(=O)O)C(=O)N[C@@H](CCC(N)=O)C(=O)N[C@@H](CC(=O)O)C(=O)N[C@@H](CC(=O)O)C(=O)N[C@@H](CO)C(=O)O [SEQ ID NO:26, Gln-Gln-Leu-Gly-Xaa-His-Gln-Asp-Gln-Asp-Asp-Ser] ({Biotin-Ahx}-QQLG[pY]HQDQDDS-OH)	
no binding	CC(C)C[C@H](NC(=O)[C@H](CC(=O)O)NC(=O)[C@H](CO)NC(=O)[C@H](C)NC(=O)[C@H](CC(=O)O)NC(=O)[C@H](CCC(N)=O)NC(=O)[C@@H](NC(=O)[C@H](Cc1ccc(OP(=O)(O)O)cc1)NC(=O)[C@H](CCCCN)NC(=O)[C@@H]1CCCN1C(=O)[C@H](CCC(N)=O)NC(=O)CNC(=O)CCCCCNC(=O)CCCC[C@@H]1SC[C@@H]2NC(=O)N[C@@H]21)[C@@H](C)O)C(=O)O [SEQ ID NO:27, Gly-Gln-Pro-Lys-Xaa-Thr-Gln-Asp-Ala-Ser-Asp-Leu] ({Biotin-Ahx}-GQPK[pY]TQDASDL-OH)	
no binding	C[C@@H](O)[C@H](NC(=O)CCCCCNC(=O)CCCC[C@@H]1SC[C@@H]2NC(=O)N[C@@H]21)C(=O)N[C@@H](Cc1ccccc1)C(=O)N[C@@H](CCC(N)=O)C(=O)NCC(=O)N[C@@H](Cc1ccc(O)cc1)C(=O)N[C@@H](CCC(N)=O)C(=O)N[C@@H](CCCCN)C(=O)N[C@@H](CCC(N)=O)C(=O)N[C@H](C(=O)N[C@@H](CCCNC(=N)N)C(=O)N[C@@H](Cc1c[nH]c2ccccc12)C(=O)N[C@@H](CCCCN)C(=O)O)[C@@H](C)O [SEQ ID NO:28, Thr-Phe-Gln-Gly-Tyr-Gln-Lys-Gln-Thr-Arg-Trp-Lys] ({Biotin-Ahx}-TFQGYQKQTRWK-OH)	
no binding	CC(C)C[C@H](NC(=O)CCCCCNC(=O)CCCC[C@@H]1SC[C@@H]2NC(=O)N[C@@H]21)C(=O)N[C@@H](C)C(=O)N[C@@H](C)C(=O)NCC(=O)N[C@@H](Cc1ccc(O)cc1)C(=O)N[C@@H](CC(C)C)C(=O)N[C@@H](CCCCN)C(=O)N[C@@H](CCC(N)=O)C(=O)N[C@@H](CCC(=O)O)C(=O)N[C@@H](CO)C(=O)N[C@@H](CCC(N)=O)C(=O)NCC(=O)O [SEQ ID NO:29, Leu-Ala-Ala-Gly-Tyr-Leu-Lys-Gln-Glu-Ser-Gln-Gly] ({Biotin-Ahx}-LAAGYLKQESQG-OH)	
